In patent US5179122A, “Nutritional supplement containing Vitamin E” (priority 1991, dated 1993):
Where two headings read alike, the source gives them in different places. Each block holds one compound with its values, some of them ahead of it.

Tests used:
[1] = 3% aqueous solution of Tween-80; cited from earlier work
[2] = some species; even in water dispersible forms; cited from earlier work
[3] = rats; aqueous lecithin dispersed, containing medium chain triglycerides; cited from earlier work
[4] = Melt temperature of VEA/TPGS blends by differential scanning calorimetry; format: physicochemical
Protocol: In this example, miscibility of the blends was investigated by determining the melt temperature of various blend ratios. […] The mixture was heated and blended to a homogeneous blend and cooled to room temperature. The melting point of each blend was determined by differential scanning calorimetry.

[5] = Melt temperature of VEA/Myvatex Texture Lite blends by differential scanning calorimetry; format: physicochemical; settings: VEA/Myvatex Texture Lite (wt. %); DSC
From the text: This example illustrates the affect of Myvatex Texture Lite food emulsifier on the melt temperature of VEA. The solid blend was formulated as described in Example 2.

[6] = horses; 0, 200, 600, 1800 and 5400 mg daily; cited from earlier work
[7] = zoo animals; remaining excreted unchanged; cited from earlier work
[8] = solubilized in medium-chain triglycerides; cited from earlier work
[9] = same patients; tocopherol in vegetable oil; cited from earlier work
[10] = human, in vivo, po; cited from earlier work

Melt Temperature ([4]; VEA/TPGS (wt. %), DSC): 2.9 °C
TPGS required to solidify VEA ([4]; at room temperature): 25%
Melt Temperature [5]: 2.9 °C
Compound: CC(=O)Oc1c(C)c(C)c2c(c1C)CCC(C)(CCC[C@H](C)CCC[C@H](C)CCCC(C)C)O2 (mixture of isomers) [VEA, d- or dl-alpha-tocopheryl acetate]
absorption rate relative to vegetable oil solution of VEA [1]: twice the rate
bioavailability [2]: not bioavailable
absorption of tocopherol [3]: enhanced absorption

Compound: CC(=O)Oc1c(C)c(C)c2c(c1C)CCC(C)(CCCC(C)CCCC(C)CCCC(C)C)O2 (racemic) [dl-alpha-tocopheryl acetate]
serum tocopherol levels with increasing dosage [6]: increased almost linearly
administered tocopherol absorbed [7]: one-half

Compound: Cc1c(C)c2c(c(C)c1O)CCC(C)(CCCC(C)CCCC(C)CCCC(C)C)O2 (stereo not drawn) [tocopherol, alpha-tocopherol]
bioavailability [2]: not bioavailable
absorption of tocopherol [8]: enhanced absorption
increase of tocopherol in the blood [9]: no significant increase

Compound: Vitamin A
absorption [10]: enhanced absorption

Compound: Vitamin E
absorption [10]: enhanced absorption
